Assay results reported in ChEMBL document CHEMBL1201862, “PubChem BioAssay data set” (2004).
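Test compounds were applied to cells in 96-well plates for 48 hours at 5 doses. GI50 marks 50% less growth.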 Active and inactive are the calls of the source. Cut-off read from the data, not from the text of the source: active = GI50 up to about 1.1 µM and inactive = higher.

What was measured:
Experiment in all cases: growth of human tumour cells (NCI), 48 h
A549 = tested on: A549
SF-539 = tested on: SF-539
SNB-75 = tested on: SNB-75
HOP-92 = tested on: HOP-92
ACHN = tested on: ACHN
UO-31 = tested on: UO-31
NCI-H522 = tested on: NCI-H522
OVCAR-5 = tested on: OVCAR-5
UACC-62 = tested on: UACC-62
OVCAR-3 = tested on: OVCAR-3
EKVX = tested on: EKVX
786-0 = tested on: 786-0
KM12 = tested on: KM12
HCC 2998 = tested on: HCC 2998
SK-MEL-5 = tested on: SK-MEL-5
SR = tested on: SR

Measured: GI50

C#CN1C(=O)c2c(c(-c3ccccc3)c(-c3ccc(Oc4ccc(-c5c(-c6ccccc6)c6c(c(-c7ccccc7)c5-c5ccccc5)C(=O)N(C#C)C6=O)cc4)cc3)c(-c3ccccc3)c2-c2ccccc2)C1=O
inactive: A549 > 100 µM | SF-539 > 100 µM | SNB-75 > 100 µM | HOP-92 21.9 µM | ACHN > 100 µM | UO-31 > 100 µM | NCI-H522 > 100 µM | OVCAR-5 > 100 µM | UACC-62 > 100 µM | OVCAR-3 > 100 µM | EKVX > 100 µM | 786-0 > 100 µM | KM12 > 100 µM | HCC 2998 > 100 µM | SK-MEL-5 > 100 µM

CC(=O)CNC(=O)OC(C)(C)C
inactive: A549 > 100 µM | SF-539 > 100 µM | SNB-75 > 100 µM | HOP-92 > 100 µM | ACHN > 100 µM | UO-31 > 100 µM | NCI-H522 > 100 µM | OVCAR-5 > 100 µM | UACC-62 > 100 µM | OVCAR-3 > 100 µM | SR > 100 µM | EKVX > 100 µM | 786-0 > 100 µM | KM12 > 100 µM | SK-MEL-5 > 100 µM

O=C(COc1ccc2c(=O)cc(-c3ccc(Cl)cc3)oc2c1)N1CCN(c2ccccc2)CC1
inactive: A549 48.9 µM | SF-539 > 100 µM | SNB-75 > 100 µM | HOP-92 64.1 µM | ACHN > 100 µM | UO-31 1.73 µM | OVCAR-5 > 100 µM | UACC-62 > 100 µM | OVCAR-3 > 100 µM | SR > 100 µM | EKVX > 100 µM | 786-0 > 100 µM | KM12 89.9 µM | HCC 2998 > 100 µM | SK-MEL-5 > 100 µM

O=C1N[C@@H](O)[C@@H]2ON=C(c3ccccc3)[C@H]12
inactive: A549 > 100 µM | SF-539 > 100 µM | SNB-75 > 100 µM | HOP-92 > 100 µM | ACHN > 100 µM | UO-31 > 100 µM | OVCAR-5 > 100 µM | UACC-62 > 100 µM | OVCAR-3 > 100 µM | SR > 100 µM | EKVX > 100 µM | 786-0 > 100 µM | KM12 > 100 µM | HCC 2998 > 100 µM | SK-MEL-5 > 100 µM

COc1cc(C=O)c(-c2cc3c(cc2C2(C)OCCS2)OCO3)c(OC)c1OC (centres undefined)
inactive: A549 8.71 µM | SF-539 5.85 µM | SNB-75 7.89 µM | HOP-92 14.8 µM | ACHN 18.5 µM | UO-31 14.1 µM | NCI-H522 6.08 µM | OVCAR-5 50 µM | UACC-62 12.6 µM | OVCAR-3 5.14 µM | SR 14.1 µM | EKVX 19.7 µM | 786-0 7.4 µM | KM12 9.53 µM | HCC 2998 16.4 µM | SK-MEL-5 9.14 µM

COc1ccc(-c2nc3c(nc2-c2ccc(OC)cc2)C(N)=NS(=O)(=O)N3)cc1
inactive: A549 > 100 µM | SF-539 > 100 µM | SNB-75 > 100 µM | ACHN > 100 µM | UO-31 > 100 µM | NCI-H522 > 100 µM | OVCAR-5 > 100 µM | UACC-62 > 100 µM | OVCAR-3 > 100 µM | EKVX > 100 µM | 786-0 > 100 µM | KM12 > 100 µM | HCC 2998 > 100 µM | SK-MEL-5 > 100 µM

CCOc1ccc(N2C(=O)/C(=C/c3ccc(N(CCC#N)CCC#N)cc3)N=C2c2cc([N+](=O)[O-])ccc2Cl)cc1
inactive: A549 45 µM | SF-539 27.2 µM | SNB-75 30.3 µM | ACHN 49.9 µM | UO-31 39.4 µM | OVCAR-5 > 100 µM | UACC-62 26.7 µM | OVCAR-3 17.7 µM | EKVX 27.4 µM | 786-0 12.4 µM | KM12 18.9 µM | HCC 2998 37.2 µM | SK-MEL-5 18.6 µM

O=C(/C=C1/Nc2ccc([N+](=O)[O-])cc2NC1O)c1cccc([N+](=O)[O-])c1 (centres undefined)
inactive: A549 58.7 µM | SF-539 20.7 µM | SNB-75 46.3 µM | HOP-92 > 100 µM | ACHN 66.5 µM | UO-31 35.9 µM | NCI-H522 18.7 µM | UACC-62 81.7 µM | OVCAR-3 35.6 µM | SR > 100 µM | EKVX > 100 µM | 786-0 14 µM | HCC 2998 53.5 µM | SK-MEL-5 70.5 µM

COC(=O)C1=C(C)N(NC(N)=O)C2(N)N(NC(N)=O)C(C)=C(C(=O)OC)C12C(=O)OC (centres undefined)
inactive: A549 > 100 µM | SF-539 > 100 µM | HOP-92 > 100 µM | ACHN > 100 µM | UO-31 > 100 µM | NCI-H522 > 100 µM | OVCAR-5 > 100 µM | UACC-62 > 100 µM | OVCAR-3 > 10 µM | EKVX > 100 µM | 786-0 > 100 µM | KM12 > 10 µM | HCC 2998 > 100 µM

O=C(/C=C/c1ccc(OCCCCCCCCCCOc2ccc(/C=C/C(=O)c3ccc(Cl)cc3)cc2)cc1)c1ccc(Cl)cc1
inactive: A549 > 100 µM | SF-539 > 100 µM | SNB-75 > 100 µM | HOP-92 > 100 µM | ACHN > 100 µM | UO-31 > 100 µM | NCI-H522 > 100 µM | OVCAR-5 > 100 µM | UACC-62 > 100 µM | OVCAR-3 > 100 µM | EKVX > 100 µM | 786-0 > 100 µM | KM12 > 100 µM | HCC 2998 > 100 µM | SK-MEL-5 > 100 µM

Nc1nc2ncn(CC(O)CO)c2c(=S)[nH]1 (centres undefined)
inactive: A549 > 100 µM | SF-539 > 100 µM | SNB-75 > 100 µM | HOP-92 > 100 µM | ACHN > 100 µM | UO-31 > 100 µM | NCI-H522 > 100 µM | OVCAR-5 > 100 µM | UACC-62 > 100 µM | OVCAR-3 > 100 µM | SR > 100 µM | EKVX > 100 µM | 786-0 > 100 µM | KM12 > 100 µM | SK-MEL-5 > 100 µM

O=C1c2ccccc2C(=O)c2nc(-c3ccccc3)c(-c3ccccc3)nc21
inactive: A549 22.8 µM | SF-539 24.7 µM | SNB-75 8.15 µM | HOP-92 20.3 µM | ACHN > 100 µM | UO-31 > 100 µM | NCI-H522 14.4 µM | OVCAR-5 > 100 µM | UACC-62 2.74 µM | OVCAR-3 2.58 µM | EKVX > 100 µM | 786-0 > 61.7 µM | KM12 > 100 µM | HCC 2998 > 100 µM | SK-MEL-5 1.49 µM

c1ccc(SC23C4C5C6C4C2C6C53)nc1 (centres undefined)
inactive: A549 > 100 µM | SF-539 > 75 µM | SNB-75 > 77.4 µM | HOP-92 > 100 µM | ACHN > 100 µM | UO-31 35.6 µM | NCI-H522 > 100 µM | OVCAR-5 > 100 µM | UACC-62 > 100 µM | OVCAR-3 > 100 µM | SR > 19.6 µM | EKVX > 100 µM | 786-0 > 100 µM | KM12 > 100 µM | HCC 2998 > 100 µM | SK-MEL-5 > 100 µM

O=C(CC(=O)c1cccc2ccccc12)C(=O)NC1C2CC3CC(C2)CC1C3 (centres undefined)
inactive: A549 > 100 µM | SF-539 > 100 µM | HOP-92 34.4 µM | ACHN > 100 µM | UO-31 > 100 µM | NCI-H522 > 100 µM | OVCAR-5 > 100 µM | UACC-62 > 100 µM | OVCAR-3 > 100 µM | EKVX > 100 µM | 786-0 > 100 µM | KM12 > 100 µM | HCC 2998 > 100 µM | SK-MEL-5 > 100 µM

CN(C)C(=S)Nc1nnc(Nc2ccccc2)s1
inactive: A549 > 100 µM | SF-539 > 100 µM | SNB-75 > 100 µM | HOP-92 > 100 µM | ACHN > 100 µM | UO-31 > 100 µM | NCI-H522 9.51 µM | OVCAR-5 > 100 µM | OVCAR-3 > 100 µM | SR > 100 µM | EKVX > 100 µM | 786-0 > 100 µM | KM12 > 10 µM | HCC 2998 > 100 µM | SK-MEL-5 38.7 µM

COC(=O)/C=C/c1cc(OC)c(OC)c(OC)c1
inactive: A549 > 100 µM | SF-539 > 100 µM | SNB-75 41.6 µM | HOP-92 > 100 µM | ACHN > 100 µM | UO-31 69.3 µM | NCI-H522 46.5 µM | UACC-62 78.3 µM | OVCAR-3 > 100 µM | SR > 100 µM | EKVX > 100 µM | 786-0 > 100 µM | KM12 > 100 µM | HCC 2998 > 100 µM | SK-MEL-5 > 100 µM

COc1ccc(/C(=N\NC(=N)N)C(c2ccc(OC)cc2)C2OC(=O)c3ccccc32)cc1 (centres undefined)
inactive: A549 > 100 µM | SF-539 > 100 µM | SNB-75 67.5 µM | HOP-92 > 100 µM | ACHN > 100 µM | UO-31 > 100 µM | NCI-H522 > 100 µM | OVCAR-5 > 100 µM | UACC-62 > 100 µM | OVCAR-3 > 100 µM | SR > 100 µM | 786-0 > 100 µM | KM12 > 100 µM | HCC 2998 > 100 µM | SK-MEL-5 > 100 µM

Clc1cccc(-c2nnc(-c3nn(-c4ccccc4)c4nc5ccccc5nc34)o2)c1
inactive: A549 > 100 µM | SF-539 > 100 µM | SNB-75 36.6 µM | ACHN > 100 µM | UO-31 > 100 µM | NCI-H522 > 100 µM | OVCAR-5 > 100 µM | UACC-62 > 100 µM | OVCAR-3 > 100 µM | EKVX > 100 µM | 786-0 > 100 µM | KM12 > 100 µM | HCC 2998 > 100 µM | SK-MEL-5 77.4 µM
